In article PMC8387043, “Host Poly(A) Polymerases PAPD5 and PAPD7 Provide Two Layers of Protection That Ensure the Integrity and Stability of Hepatitis B Virus RNA” (Journal of Virology, 2021):
Where two headings read alike, the source gives them in different places.

Legend:
HBV [1] = test: Antiviral assay in HepG2.2.15 cells (HBsAg/HBeAg CLIA, secreted HBV DNA qPCR); assay type: cell-based, hepatitis B virus; conditions: Hepatitis B virus
HBV [2] = test: Antiviral assay in HBV-infected primary human hepatocytes (PHH); assay type: cell-based; conditions: Hepatitis B virus, Hepatocyte
HCMV = test: Antiviral selectivity panel, CPE in MRC-5 cells; assay type: cell-based, human cytomegalovirus; conditions: Human betaherpesvirus 5, MRC5; MRC-5, CPE
WNV = test: Antiviral selectivity panel, CPE in Vero76 cells; assay type: cell-based; conditions: West Nile virus, Vero 76
Experimental: (§1) HepG2.2.15 (30,000 cells/well) were plated in 96-well collagen-treated plates and incubated at 37°C. Compounds were half-log serially diluted and added in duplicate to 96-well microtiter plates. The plates were incubated for a total duration of 6 days, after which the culture medium was removed for the HBsAg and HBeAg CLIA assays (AutoBio Diagnostics Co., China) performed according to the manufacturer’s instructions. Secreted HBV DNA was extracted (Realtime Ready cell lysis kit; Roche, Mannheim, Germany) and quantified in a qPCR assay (LightCycler 480 SYBR green I master mix; Roche) with the 5′-[…]-3′ (sense) and 5′-[…]-3′ (antisense) primers using the PCR conditions of denaturing at 95°C for 5 min followed by 40 cycles of amplification at 95°C for 15 s and 60°C for 30 s. Antiviral selectivity studies against a panel of different DNA and RNA viruses were performed at ImQuest BioSicences (Frederick, MD, USA). Briefly, test compounds were evaluated using 6 doses, including the highest concentration of 30 μM and five serial half-logarithmic dilutions in triplicate for the antiviral assays.

RSV = test: Antiviral selectivity panel, CPE in HEp2 cells; assay type: cell-based; conditions: human respiratory syncytial virus, HEp-2
Human rhinovirus = test: Antiviral selectivity panel, CPE in H1-HeLa cells; assay type: cell-based; conditions: Human rhinovirus sp.
[3] = tested on: panel of 10 different RNA and DNA viruses; test: Antiviral selectivity panel (summary statement); assay type: cell-based; conditions: read-out: EC50 against a panel of 10 different RNA and DNA viruses
Experimental: as §1

in vitro = assay type: cell-based; conditions: human
Source text: (§2) TABLE 3 Cytotoxicity of AB-452 against cells derived from various tissues | column: AB-452 CC50 (μM)

Cytotoxicity = assay type: cell-based
Source text: as §2

recombinant human PAPD7 = target: T1, recombinant human PAPD7 (Homo sapiens, UniProt Q5XG87); test: PAPD7 ATP depletion assay; assay type: biochemical
T1 construct: PAPD7 (amino acids 226 to 558; NM_006999.6); 10xHis (N); Flag (N); TEV cleavage site (N); host or cells: E. coli BL21(DE3), vector pET-24a(+)
T1 sequence (Q5XG87 226-558): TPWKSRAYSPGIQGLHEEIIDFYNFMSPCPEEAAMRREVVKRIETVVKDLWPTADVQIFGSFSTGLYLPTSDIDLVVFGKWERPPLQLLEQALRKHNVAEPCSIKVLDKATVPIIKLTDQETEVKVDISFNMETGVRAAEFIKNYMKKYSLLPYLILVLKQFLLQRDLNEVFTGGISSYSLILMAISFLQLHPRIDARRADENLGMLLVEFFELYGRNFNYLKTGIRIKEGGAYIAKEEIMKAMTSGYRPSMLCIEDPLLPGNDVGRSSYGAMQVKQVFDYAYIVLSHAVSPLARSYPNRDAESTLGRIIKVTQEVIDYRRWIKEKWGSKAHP
Experimental: Molecular cloning, expression, and purification of the recombinant human PAPD5 and PAPD7 proteins were performed at Xtal BioStructures (MA, USA). PAPD5 (amino acids 186 to 518; GenBank accession no. XM_011523275) and PAPD7 (amino acids 226 to 558; GenBank accession no. NM_006999.6) genes comprising of nucleotidyltransferase and PAP-associated domains were codon optimized, synthesized, and inserted in the expression vector pET-24a(+) for E. coli expression with 10×His-Flag-tobacco etch virus (TEV) tags at the N terminus. The pET-24a(+) constructs were transformed into E. coli-competent cells BL21(DE3). […] Expression of protein was induced for 16 h with 0.2 mM IPTG (isopropyl-β-D-thiogalactopyranoside) at 18°C. […] Roche). Cell suspension was sonicated 8 × 20 s at 27 to 30 W (power level, 3.5 to 4.0) with 40-s breaks between each pulse. Lysate was cleared by centrifugation in a 50-ml conical tube at 20,000 × g for 30 min (Fiberlite F13-14 × 50cy rotor in a Sorvall RC6 centrifuge). Supernatant was incubated with Ni-charged MagBeads (GenScript; catalog no. […] Bound proteins were washed with 50 ml binding buffer and eluted in elution buffer containing a gradient of imidazole ranging from 5 to 500 mM. Peak fractions were pooled and stored in 50% glycerol at -80°C. Reactions were carried out in duplicate in 96-well low-profile, skirted, white plates (catalog no. AB0800WL; […] The reaction mixtures were incubated at room temperature for 3 h, and ATP depletion was monitored by using Kinase-Glo luminescent kinase kit following the manufacturer's instructions (catalog no. V6712; Promega, WI, USA).

HBsAg = HBsAg inhibition in adenovirus-HBsAg-transduced HepG2-NTCP WT and KO clones; assay type: cell-based, hepatitis B virus; conditions: for EC50: Hepatitis B virus
HBV [4] = test: AAV-HBV-transduced mouse model; conditions: 7 days; for mean reduction of serum HBV DNA vs vehicle / mean reduction of serum HBsAg vs vehicle / reduction of intrahepatic HBsAg levels / reduction of intrahepatic pgRNA levels / reduction of intrahepatic total HBV RNA levels: oral
Experimental: Male C57BL/6J mice, 6 weeks old, were each inoculated with 1E11 genomes of adeno-associated virus (AAV) vector AAV-HBV1.2 containing a 1.2× overlength sequence of HBV genome (genotype D; GenBank accession no. V01460) ([2]). Mice were administered the AAV2/8-type vector via intravenous tail vein injection. Twenty-eight days after AAV infection, animals were randomized into groups (n = 5) based on serum HBsAg concentration. […] Serum and liver HBsAg concentrations were determined using the Bio-Rad enzyme immunoassay (EIA) GS HBsAg 3.0 kit according to the manufacturer's instructions. […] Total HBV RNA concentrations in the liver were quantified using a branched DNA assay (QuantiGene 2.0; Thermo Fisher Scientific) with probes targeting the shared 3′ region of HBV transcripts, whereas 3.5 kb HBV RNA concentrations were quantified with probes targeting the unique 5′ region of the pgRNA; in both cases, signal was normalized against mouse glyceraldehyde 3-phosphate dehydrogenase (GAPDH).

HBV RNA poly(A) tails = conditions: Huh-7, 100 nM
HBV PRE = HBV PRE cis-element reporter plasmids (HBsAg or Gluc) transfected in Huh-7 cells; conditions: Hepatitis B virus

COCCCOc1cc2c(nc1OC)-c1cc(=O)c(C(=O)O)cn1[C@H](C(C)C)C2 [AB-452]
EC50 (HBV [1]; HepG2-2.2.15, Table 2, read-out: EC50, HBV (HBsAg)): 1.2 nM
EC50 (HBV [1]; HepG2.2.15 cells, read-out: HBV DNA EC50): 0.28 ± 0.01 nM
EC50 (HBV [1]; HepG2.2.15 cells, read-out: HBeAg EC50): 2.8 ± 2.1 nM
EC50 (HBV [1]; HepG2.2.15 cells, read-out: HBsAg EC50): 1.4 ± 0.2 nM
EC50 (HBV [2]; read-out: HBV DNA EC50): 4.2 ± 3.8 nM
EC50 (HBV [2]; read-out: HBeAg EC50): 3.7 ± 1.3 nM
EC50 (HBV [2]; read-out: HBsAg EC50): 3 ± 2.1 nM
EC50 (HCMV): > 30000 nM
EC50 (WNV): > 30000 nM
EC50 (RSV): > 30000 nM
EC50 (Human rhinovirus): > 30000 nM
EC50 [3]: > 30000 nM
CC50 (in vitro): > 30000 nM
CC50 (Cytotoxicity; African green monkey, Vero cells (kidney)): > 30000 nM
CC50 (Cytotoxicity; HEp2, human epithelial cells): > 30000 nM
CC50 (Cytotoxicity; HeLa, human cervical cancer cells): > 30000 nM
CC50 (Cytotoxicity; cattle (bovine), MDBK cells (kidney)): > 30000 nM
CC50 (Cytotoxicity; hamster, BHK21 cells (kidney)): > 30000 nM
CC50 (Cytotoxicity; human, CEM-SS cells (T lymphoblast)): > 30000 nM
CC50 (Cytotoxicity; human, MRC5 cells (lung fibroblasts)): > 30000 nM
IC50 (recombinant human PAPD7): 498 nM
EC50 (HBsAg; T222, read-out: Adeno infection EC50, P7_KO (T2-22), HBsAg): 7.1 ± 1.3 nM
EC50 (HBsAg; read-out: Adeno infection EC50, P5_KO (T3-4), HBsAg): 71.6 ± 31.2 nM
EC50 (HBsAg; read-out: Adeno infection EC50, P5_KO (T3-15), HBsAg): 56 ± 34 nM
EC50 (HBsAg; read-out: Adeno infection EC50, P7_KO (T2-8), HBsAg): 10 ± 1 nM
EC50 (HBsAg; read-out: Adeno infection EC50, WT (parent) HepG2-NTCP, HBsAg): 9 ± 4.6 nM
Adeno infection FC vs WT (HBsAg; P5_KO (T3-4)): 8.0
Adeno infection FC vs WT (HBsAg; P5_KO (T3-15)): 6.3
Adeno infection FC vs WT (HBsAg; P7_KO (T2-8)): 1.1
Adeno infection FC vs WT (HBsAg; P7_KO (T2-22)): 0.8
Adeno infection FC vs WT (HBsAg; WT (parent)): 1
inhibition in P5/7_DKO and Z14_KO cell lines (HBsAg; adenovirus-transduced and HBV-infected clones (Fig. 7D to G)): did not show further inhibition than the untreated controls
mean reduction of serum HBV DNA vs vehicle (HBV [4]; 0.1 mg/kg twice daily): 0.79 log10
mean reduction of serum HBsAg vs vehicle (HBV [4]; 0.1 mg/kg twice daily): 0.68 log10
reduction of intrahepatic HBsAg levels (HBV [4]; 0.1 mg/kg twice daily): 64%
reduction of intrahepatic pgRNA levels (HBV [4]; 0.1 mg/kg twice daily): 43%
reduction of intrahepatic total HBV RNA levels (HBV [4]; 0.1 mg/kg twice daily): 35%
mean reduction of serum HBV DNA vs vehicle (HBV [4]; 0.3 mg/kg twice daily): 1.16 log10
mean reduction of serum HBsAg vs vehicle (HBV [4]; 0.3 mg/kg twice daily): 0.72 log10
reduction of intrahepatic HBsAg levels (HBV [4]; 0.3 mg/kg twice daily): 69%
reduction of intrahepatic pgRNA levels (HBV [4]; 0.3 mg/kg twice daily): 55%
reduction of intrahepatic total HBV RNA levels (HBV [4]; 0.3 mg/kg twice daily): 55%
mean reduction of serum HBV DNA vs vehicle (HBV [4]; 1 mg/kg twice daily): 0.94 log10
mean reduction of serum HBsAg vs vehicle (HBV [4]; 1 mg/kg twice daily): 0.93 log10
reduction of intrahepatic HBsAg levels (HBV [4]; 1 mg/kg twice daily): 83%
reduction of intrahepatic pgRNA levels (HBV [4]; 1 mg/kg twice daily): 63%
reduction of intrahepatic total HBV RNA levels (HBV [4]; 1 mg/kg twice daily): 66%
tolerability / body weight (HBV [4]; oral, 0.1, 0.3, 1 mg/kg twice daily, vs vehicle): well tolerated, with no significant change or reduction in body weight
poly(A) tail length of H133_dSLα transcripts (HBV RNA poly(A) tails; untreated 71): 62 nucleotides
average poly(A) tail length of H133 transcripts (HBV RNA poly(A) tails; untreated 124): 64 nucleotides
overall guanylation frequency, H133 (HBV RNA poly(A) tails; untreated about 60%): 24%
EC50 (HBV PRE; 120 h, read-out: EC50, Gluc_dHBx (Gluc activity)): 4.2 nM
EC50 (HBV PRE; 120 h, read-out: EC50, H133_Gluc (Gluc activity)): 10 nM
EC50 (HBV PRE; Huh-7, 120 h, read-out: EC50, Gluc_rcSLα (Gluc activity)): > 100 nM
EC50 (HBV PRE; Huh-7, 120 h, read-out: EC50, H133 (HBsAg)): 2.5 nM
EC50 (HBV PRE; Huh-7, 120 h, read-out: EC50, H133_dLa (HBsAg)): 4.3 nM
